# According to patent US20220249504A1, “LONGEVITY SIGNATURES AND THEIR APPLICATIONS” (The Brigham and Women's Hospital, Inc., priority 2019, published 2022):
# Entries after “also recorded” stand apart in the source; their conditions may differ.
# Experiments:
# C57BL/6 mice [1] = assay: Frailty index of old C57BL/6 mice on compound diet; assay type: in vivo, mouse
# Procedure: (§1) Briefly, 24-28 mice per intervention were used, with an approximately equal number of males and females. Mice were first assessed with regard to frailty index and gait speed, and then randomized to make sure the experimental and control groups had the same average frailty index and gait speed. Mice were then given a diet containing a compound of interest. […] Mice were monitored daily until they died. A separate cohort of old mice was assessed for frailty index and gait speed.
# as §1, with “females. They” for “females. Mice”
# C57BL/6 mice [2] = assay: Glucose tolerance in old C57BL/6 mice on compound diet; assay type: in vivo, mouse; settings: old C57BL/6 mice at the dose given in diet (AZD-8055: 23-month-old, treated 2.5 months)
# Procedure: 23-month-old mice were treated for 2.5 months prior to analyses.
# C57BI/6 mice = assay: Lifespan of old (2-year-old) C57BL/6 mice given a diet containing the compound; assay type: in vivo, mouse; settings: C57BL/6 male mice, given late in life, ad libitum in diet (AZD-8055 20 mg/kg of food, LY294002 600 mg/kg, KU-0063794 10 mg/kg of diet)
# Procedure: as §1
# Interventions were predicted in a screen based on the gene expression longevity signatures that we developed. The predicted interventions were then verified for gene expression responses in human and mouse primary cell culture (hepatocytes) and in live mice (after mice were fed for 1 month with the diets containing these interventions). The interventions that passed these tests were further assessed for the effect on lifespan of 2-year-old C57BI/6 mice. Older mice (2-year-old) were chosen for this experiment in order to mimic the effect of giving interventions to human subjects in their second half of life.
# as §1, with “females. They” for “females. Mice”
# C57BL/6 mice [3] = assay: Gait speed of old C57BL/6 mice on compound diet; assay type: in vivo, mouse; settings: 31-month-old C57BL/6 male mice
# Procedure: as §1
# as §1, with “females. They” for “females. Mice”
# longevity signatures = assay: GSEA-based association of publicly available hepatic gene expression datasets with longevity signatures; assay type: in vivo, mouse; settings: for Association of hepatic gene expression changes with longevity signatures: public datasets (IL-6 injection GSE21060; SRT2104 in males GSE49000)
# From the text: For interventions from publicly available sources (FIG. 7E (upper)), we downloaded them from GEO under the following accession numbers: GSE21060 (Ramadoss et al., 2010), GSE77082 (Alonso et al., 2017), GSE15891 (Baze et al., 2010), GSE11287 (Osburn et al., 2008), GSE49000 (Mercken et al., 2014), GSE10421 (Kautz et al., 2008) and GSE104234 (Rhoads et al., 2018). Data corresponding to Sirt6 overexpression (Kanfi et al., 2012) were downloaded via the link provided in the original paper. When running association test for the rhesus monkey data, we converted monkey genes to mouse orthologs using Ensembl BioMart platform. We preprocessed each dataset, performed quantile normalization and Entrez ID transformation and applied limma model for calculation of p-values, which were converted to log10(p-value) corrected by the sign of regulation as explained earlier.
# To calculate statistical significance of obtained GSEA score, we performed permutation test where we randomly assigned genes to the lists of gene set maintaining their size. To get p-value of association between certain intervention and longevity signature, we calculated the frequency of real final GSEA score being bigger by absolute value than random final GSEA scores obtained as results of 3,000 permutations. To adjust for multiple comparisons, we performed Benjamini-Hochberg procedure. Resulted adjusted p-values were converted into significance scores as:
# significance score=−log10(adj.pv)×sgn(GSEA score),
# where adj. pv and GSEA score are BH adjusted p-value and final GSEA score, respectively. Heatmaps were colored based on values of significance scores. […]
# mice = settings: cited from earlier work; for Effect on lifespan in the ITP mouse cohort: at the concentrations used (Miller et al., 2011; Strong et al., 2013, 2016)
# sex-associated genes = assay: Feminizing effect of lifespan-extending interventions on hepatic gene expression (RNAseq, UM-HET3 mice); settings: females
# From the text: Liver samples corresponding to lifespan-extending interventions for RNA-seq and metabolome analysis were taken at 6 and 12 months of age from male and female mice treated by drugs or exposed to caloric restriction (CR) diet from 4 months of age along with control mice, which were untreated littermate mice matched by age and sex.
# In all cases, interventions continued until the animals were sacrificed. […] RNA was extracted from liver tissues with PureLink RNA Mini Kit as described in the protocol and passed to sequencing.
# For samples corresponding to lifespan-extending interventions, paired-end sequencing with 100 bp read length was performed on illumine HiSeq2000 platform. […] Quality filtering and adapter removal were performed using Trimmomatic version 0.32.
# When performing analysis of the feminizing effect, gene expression differences were identified between control males and females from UM-HET3 strains for each age group. […] The statistical significance of correlation between sex-associated differences and response to certain intervention (“feminizing effect”) was calculated using Spearman correlation test and adjusted for multiple comparisons with Benjamini-Hochberg procedure. When calculating correlation between response to certain intervention in specific age group (6 or 12 months) and female-associated differences, the latter were calculated using gene expression data for control males and females from the other age group (12 or 6 months, respectively). […]
# Differences in the feminizing effect of interventions in certain age groups between males and females was tested by Spearman correlation test, applied to the difference in log2FC of gender-associated genes in response to the specified conditions between males and females, and female-associated differences based on the other age group, with the following Benjamini-Hochberg adjustment. Manhattan distance between male and female gene expression profiles was calculated for individual samples in a pairwise manner using intersection of sex-specific gene sets across age groups. […]
# [4] = tested on: mouse liver gene expression; assay: Meta-analysis: Spearman correlation between hepatic gene expression profiles of interventions; assay type: in vivo; settings: for Correlation with the main cluster of interventions (defined by CR and GH deficiency): median Spearman correlation matrix
# From the text: To identify signatures associated with lifespan extension and the effect of certain interventions, we expanded our data with publicly available datasets from Gene Expression Omnibus (GEO) (Edgar, 2002) and ArrayExpress (Kolesnikov et al., 2015) databases. For the analysis of signatures associated with certain interventions (CR, rapamycin, GH deficiency), we integrated available gene expression data obtained from liver of mice from healthy genetic strains on standard diets subjected to CR, rapamycin and mutations associated with GH deficiency (Ames dwarf mice, GHRKO, Little mice, Snell dwarf mice). […] Finally, for the analysis of signatures associated with the lifespan extension effect, we integrated datasets on interventions with available and reliable survival data corresponding to the same experimental design (sex, strain, dose, age when the intervention started). In total, our hepatic meta-analysis covered 17 different interventions presented in 77 control-intervention datasets from 22 different sources (including ours) (FIG. 3D). The same approach was used to obtain microarray data corresponding to white adipose tissue (WAT) (9 control-intervention datasets from 5 sources) and skeletal muscle (13 control-intervention datasets from 9 sources).
# To aggregate data across different platforms and studies, we developed the following method. First, data within each study was preprocessed independently and log-transformed to conform to normal distribution if needed. Then, filtering of low-covered genes was performed with soft threshold. Then, all identifiers were mapped to Entrez ID gene format, and genes not detected in our RNAseq data were filtered out. […] Afterwards, samples within every study were normalized by quantile normalization and scaling, followed by multiplication by the certain value to make it on the same scale as RNAseq data with more natural interpretation. Finally, mean and standard error of logFC of every gene for every response to intervention was calculated together with p-value (along with Benjamini-Hochberg adjusted p-value) estimated by edgeR (Robinson et al., 2009) and limma (Ritchie et al., 2015) for RNAseq and microarrays datasets, respectively. […] Importantly, one study may include several datasets if several interventions or settings have been analyzed there, and sometimes, different interventions or doses share the same control samples. This may be a source of batch effect, which we removed during subsequent steps of the analysis.
# To calculate correlations between interventions in unbiased way, we applied the following approach. For every pair of interventions, including comparison of intervention with itself, we examined all pairs of datasets from different sources. For each such pair we selected 250 genes consisting of 125 genes with the most significant expression change (with the lowest p-values) from each dataset and calculated Spearman correlation coefficient within the pair. We reiterated this algorithm and, as a result, for every pair of interventions obtained distribution of Spearman correlation coefficients, calculated between datasets from different sources. For CR and rapamycin, we visualized these distributions using violinplot. One-sample Mann-Whitney test and Benjamini-Hochberg adjustment were used to check if means of correlation coefficients are different from 0 with statistical significance. We declared correlation coefficient to be significant if adjusted p-value was smaller than 0.1.
# For correlation matrix we employed median values of Spearman correlation coefficients. By filtering out comparisons of datasets from the same source, we removed possible batch effect and ended up with independent and unbiased comparison of interventions. However, as some interventions were presented only within the same source, we couldn't estimate unbiased correlation for such cases. This missing data was visualized by grey boxes. […]
# [5] = datasets from different sources, 250 genes
molecule,measurement,setting,value
"COc1ccc(-c2ccc3c(N4CCOC[C@@H]4C)nc(N4CCOC[C@@H]4C)nc3n2)cc1CO [AZD-8055, 5-[2,4-bis[(3S)-3-methyl-4-morpholinyl]pyrido[2,3-d]pyrimidin-7-yl]-2-methoxy-benzenemethanol]",Effect on frailty index,"C57BL/6 mice [1]; old C57BL/6 mice, males and females",no effect
same,Effect on glucose tolerance,C57BL/6 mice [2],does not lead to glucose intolerance; also recorded: did not compromise
"O=c1cc(N2CCOCC2)oc2c(-c3ccccc3)cccc12 [LY294002, 2-Morpholin-4-yl-8-phenylchromen-4-one]",Effect on lifespan,C57BI/6 mice,extends lifespan
same,Effect on frailty index,C57BL/6 mice [1]; 31-month-old C57BL/6 male mice,improves
same,Effect on gait speed,C57BL/6 mice [3],improves
same,Effect on glucose tolerance,C57BL/6 mice [2],No effect; also recorded: did not have a significant effect
Cc1nc(-c2cccnc2)sc1C(=O)Nc1ccccc1-c1cn2c(CN3CCOCC3)csc2n1 [SRT2104],Association with longevity signatures associated with the quantitative effect of lifespan extension,"longevity signatures; males, public dataset",no consistent positive association
same,Association of hepatic gene expression changes with longevity signatures,longevity signatures,significant positive associations of these models in males with CR and signatures shared by lifespan-extending interventions
same,Increase in median and maximum lifespan,"mice; male mice (Mercken et al., 2014b)",~10%
C[C@H]1O[C@H](O[C@H]2[C@H](O)[C@@H](O)[C@@H](O[C@H]3[C@H](O)[C@@H](O)C(O)O[C@@H]3CO)O[C@@H]2CO)[C@H](O)[C@@H](O)[C@@H]1N[C@H]1C=C(CO)[C@@H](O)[C@H](O)[C@H]1O (stereo partly drawn) [acarbose],Feminizing effect (Spearman correlation with sex-associated gene expression differences),sex-associated genes; 12-month-old,0.19
CN(C)C(=N)N=C(N)N [metformin],Correlation with CR at the level of gene expression (median Spearman correlation coefficient),[4]; [5],statistically significant positive correlations
same,Correlation with the main cluster of interventions (defined by CR and GH deficiency),[4],week positive correlation
same,Effect on lifespan in the ITP mouse cohort,mice,did not increase lifespan
CO[C@H]1C[C@@H]2CC[C@@H](C)[C@@](O)(O2)C(=O)C(=O)N2CCCC[C@H]2C(=O)O[C@H]([C@H](C)C[C@@H]2CC[C@@H](O)[C@H](OC)C2)CC(=O)[C@H](C)/C=C(\C)[C@@H](O)[C@@H](OC)C(=O)[C@H](C)C[C@H](C)/C=C/C=C/C=C/1C [rapamycin],Correlation of the intervention with itself across datasets (median Spearman correlation coefficient),[4]; [5],0.088
same,Correlation with CR at the level of gene expression (median Spearman correlation coefficient),[4]; [5],−0.049
same,Feminizing effect (Spearman correlation with sex-associated gene expression differences),sex-associated genes; 6-month-old,−0.14
same,Feminizing effect (Spearman correlation with sex-associated gene expression differences),sex-associated genes; 12-month-old,−0.49
Oc1ccc(C=Cc2cc(O)cc(O)c2)cc1 [resveratrol],Correlation with CR at the level of gene expression (median Spearman correlation coefficient),[4]; [5],statistically significant positive correlations
same,Correlation with the main cluster of interventions (defined by CR and GH deficiency),[4],week positive correlation
same,Effect on lifespan in the ITP mouse cohort,mice,did not increase lifespan
interleukin-6: pro-inflammatory cytokine secreted by T cells and macrophages,Association of hepatic gene expression changes with longevity signatures,longevity signatures,significant negative association with all longevity signatures
